Patent US20220356176A1, “Kv11.1-3.1 INHIBITING METHODS AND COMPOSITIONS” (The Johns Hopkins University, priority 2019, published 2022)
Counter-ions that a name gives are not always drawn.

Target: T1, KCNH2-3.1 (Kv11.1-3.1 containing potassium channel; hERG 3.1) (Homo sapiens, UniProt Q12809)
T1 construct: expressed in transfected cells; host or cells: U2OS cells transduced with hERG 3.1 BacMam virus
Assay: KCNH2-3.1 inhibition ion (thallium) flux assay, FluxOR
Type: cell-based
Conditions: U2OS cells transduced with hERG 3.1 Bacmam virus, 5 minutes compound incubation, read-out: Activity range (IC50)
Excerpt: The ability of the presently disclosed compounds to inhibit the activity of the ion channel produced from the KCNH2-3.1 transcript may be determined by methods known to those in the art for measuring ion channel inhibition. One method for measuring ion channel activity uses a thallium flux assay (Titus et al., 2009; FluxOR™ kit from Life Technologies). This assay measures the passage of thallium through the channel as indicated by a thallium sensitive dye loaded into the cell.
The ability of compounds to inhibit the activity of KCNH2-3.1 was determined by an ion flux assay as described (Titus et al, 2009, which is incorporated herein by reference). U2OS cells were cultured in media containing DMEM, 10% FBS, and Penicillin/Streptomycin. Cells were grown to 90% confluency then washed with PBS and pelleted. Cells were resuspended in DMEM containing 2% FBS and incubated with hERG or hERG 3.1 Bacmam virus for 4 hours at room temperature in the dark. Cells were plated onto clear-bottom PDL coated 1536 well plates and allowed to grow 16-20 hours at 37° C. FluxOr loading buffer containing 10mM Red Dye #40 was added to each well and incubated for 45 minutes. Plates were loaded and analyzed in Hamamatsu FDSS (7000) using a two-addition protocol. In the first addition step of the assay, compounds to be tested and the cell compound mixture were incubated together for 5 minutes before addition of FluxOr stimulus buffer as the second addition step. Channel activity was detected and analyzed via the slope of fluorescence intensities versus the time of first 30 s after compound addition was calculated from the kinetic results. The signal-to-basal ratio was calculated as the slope of DMSO solvent controls in the stimulated group divided by the slope of an unstimulated group. The concentration responses of compound inhibition from the experiments were analyzed with Prism software (GraphPad, San Diego, Calif., USA).
As the data herein indicate, a broad variety of compounds of formula (I), formula (II), or formula (III) were found effective as KCNH2-3.1 containing potassium channel inhibitors at low concentrations. […] In the Table 1 below, a single plus (+) is associated with an IC50 of from about 2-10 μM; two plus signs (++) is associated with an IC50 from about 500 nM to about 2 μM; and three plus signs (+++) is associated with an IC50 less than about 500 nM.

T1 sequence (Q12809 1-1063 isoform Q12809-7): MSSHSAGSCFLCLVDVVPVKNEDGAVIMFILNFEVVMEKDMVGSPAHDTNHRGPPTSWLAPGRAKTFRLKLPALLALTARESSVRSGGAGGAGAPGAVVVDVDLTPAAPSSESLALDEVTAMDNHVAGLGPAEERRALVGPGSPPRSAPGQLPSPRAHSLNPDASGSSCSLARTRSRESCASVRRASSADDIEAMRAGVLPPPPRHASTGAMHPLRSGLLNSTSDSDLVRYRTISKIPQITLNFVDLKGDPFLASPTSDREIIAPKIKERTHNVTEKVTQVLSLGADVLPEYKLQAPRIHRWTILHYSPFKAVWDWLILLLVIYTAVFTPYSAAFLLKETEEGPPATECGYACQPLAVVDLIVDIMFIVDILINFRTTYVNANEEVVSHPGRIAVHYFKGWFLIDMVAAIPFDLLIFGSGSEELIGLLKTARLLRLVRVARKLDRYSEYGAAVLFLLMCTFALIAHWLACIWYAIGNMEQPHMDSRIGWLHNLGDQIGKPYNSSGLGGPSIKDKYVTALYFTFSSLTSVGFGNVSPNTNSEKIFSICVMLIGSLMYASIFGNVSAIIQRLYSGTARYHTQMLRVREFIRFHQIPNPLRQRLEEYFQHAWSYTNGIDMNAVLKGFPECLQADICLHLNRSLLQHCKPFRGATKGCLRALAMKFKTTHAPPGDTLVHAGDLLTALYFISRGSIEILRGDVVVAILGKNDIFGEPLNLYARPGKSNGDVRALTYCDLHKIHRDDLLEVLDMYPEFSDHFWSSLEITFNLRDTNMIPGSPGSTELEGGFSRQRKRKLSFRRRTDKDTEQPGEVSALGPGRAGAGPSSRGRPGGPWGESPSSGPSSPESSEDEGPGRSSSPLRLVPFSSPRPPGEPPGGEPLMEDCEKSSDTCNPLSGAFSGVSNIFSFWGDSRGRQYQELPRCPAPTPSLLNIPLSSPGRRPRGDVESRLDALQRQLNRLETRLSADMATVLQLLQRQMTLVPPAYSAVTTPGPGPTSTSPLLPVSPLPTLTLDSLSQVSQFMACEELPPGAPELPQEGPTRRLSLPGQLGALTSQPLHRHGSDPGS

SMILES | IC50
CC1CC(c2ccccc2)CCN1CC(=O)Nc1ccc(N2CCCCCC2)cc1 (mixture of isomers) [Example 19, N-[4-(azepan-1-yl)phenyl]-2-(2-methyl-4-phenyl-1-piperidyl)acetamide] | 500 to 2000 nM
O=C(CN1CCCCC1)Nc1ccc(N2CCCOCC2)cc1 [Example 1, N-[4-(1,4-oxazepan-4-yl)phenyl]-2-(1-piperidyl)acetamide hydrochloride] | 2000 to 10000 nM
CC1CCN(c2ccc(NC(=O)CN3CC4CCC3CC4)cn2)CC1 [Example 3, 2-(8-azabicyclo[3.2.1]octan-8-yl)-N-16-(4-methyl-1-piperidyl)-3-pyridyljacetamide] | 500 to 2000 nM
O=C(CN1CCCOCC1)Nc1ccc(N2CCCCCC2)cc1 [Example 7, N-[4-(azepan-1-yl)phenyl]-2-(1,4-oxazepan-4-yl)acetamide hydrochloride] | 2000 to 10000 nM
O=C(CN1CCCC(F)C1)Nc1ccc(N2CCCCCC2)cc1 (stereo not shown) [Example 8, N-[4-(azepan-1-yl)phenyl]-2-(3-fluoro-1-piperidyl)acettamide] | 500 to 2000 nM
O=C(CN1CCCCC1C(F)(F)F)Nc1ccc(N2CCCCCC2)cc1 (stereo not shown) [Example 9, N-[4-(azepan-1-yl)pheny]-2-[2-(trifluoromethyl)-1-piperidyl]acetamide] | 500 to 2000 nM
O=C(CN1CCC(CO)CC1)Nc1ccc(N2CCCCCC2)cc1 [Example 10, N-[4-(azepan-1-yl)phenyl]-2-[4-(hydroxymethyl)-1-piperidyl]acetamide] | 2000 to 10000 nM
O=C(CN1CCCCC1CO)Nc1ccc(N2CCCCCC2)cc1 (stereo not shown) [Example 11, N-[4-(azepan-1-yl)phenyl]-2-[2-(hydroxymethyl)-1-piperidyl]acetamide] | 2000 to 10000 nM
CC(C)(O)C1CCN(CC(=O)Nc2ccc(N3CCCCCC3)cc2)CC1 [Example 12, N-[4-(azepan-1-yl)phenyl]-2-[4-(1-hydroxy-1-methyl-ethyl)-1-piperidyl]acetamide] | 2000 to 10000 nM
O=C(CN1CCC(O)(c2ccc(Cl)cc2)CC1)Nc1ccc(N2CCCCCC2)cc1 [Example 13, N-[4-(azepan-1-yl)phenyl]-2-[4-(4-chlorophenyl)-4-hydroxy-1-piperidyl]acetamide] | < 500 nM
O=C(CN1CCCC1)Nc1ccc(N2CCCCCC2)cc1 [Example 14, N-[4-(azepan-1-yl)phenyl]-2-pyrrolidin-1-yl-acetamide hydrochloride] | 2000 to 10000 nM
CC1CCCN(CC(=O)Nc2ccc(N3CCCCCC3)cc2)C1 (stereo not shown) [Example 15] | 2000 to 10000 nM
O=C(CN1CCCCC1c1ccc(Cl)cc1)Nc1ccc(N2CCCCCC2)cc1 (stereo not shown) [Example 16, N-[4-(azepan-1-yl)phenyl]-2-[2-(4-chlorophenyl)-1-piperidyl]acetamide] | 500 to 2000 nM
O=C(CN1CCCC(c2cccc(Cl)c2)C1)Nc1ccc(N2CCCCCC2)cc1 (stereo not shown) [Example 17, N-[4-(azepan-1-yl)phenyl]-2-[3-(3-chlorophenyl)-1-piperidyl]acetamide] | < 500 nM
N#Cc1cccc(C2CCN(CC(=O)Nc3ccc(N4CCCCCC4)cc3)CC2)c1 [Example 18, N-[4-(azepan-1-yl)phenyl]-2-[4-(3-cyanophenyl)-1-piperidyl]acetamide] | < 500 nM
O=C(CN1CCC(c2ccc(F)cc2)C1)Nc1ccc(N2CCCCCC2)cc1 (stereo not shown) [Example 20, N-[4-(azepan-1-yl)phenyl]-2-[3-(4-fluorophenyl)pyrrolidin-1-yl]acetamide] | 500 to 2000 nM

SMILES | IC50
O=C(CN1CCCC(OCc2ccccc2)C1)Nc1ccc(N2CCCCCC2)cc1 (stereo not shown) [Example 22, N-[4-(azepan-1-yl)phenyl]-2-(3-benzyloxy-1-piperidyl)acetamide] | 500 to 2000 nM
O=C(CCN1CCCCC1)Nc1ccc(N2CCCCCC2)cc1 [Example 23] | 2000 to 10000 nM
CC(C(=O)Nc1ccc(N2CCCCCC2)cc1)N1CCCCC1 (stereo not shown) [Example 24, N-[4-(azepan-1-yl)phenyl]-2-(1-piperidyl)propanamide] | 2000 to 10000 nM
O=C(CN1CCCCC1)Nc1ccc(N2CCCCCC2)nc1 [Example 25, N-[6-(azepan-1-yl)-3-pyridyl]-2-(1-piperidyl)acetamide] | 500 to 2000 nM
O=C(CN1C2CCC1CC2)Nc1ccc(N2CCCCCC2)nc1 [Example 26, 2-(7-azabicyclo[2.2.1]heptan-7-yl)-N-[6-(azepan-1-yl)-3-pyridyl]acetamide] | 500 to 2000 nM
O=C(CNC1CCCCC1)Nc1ccc(N2CCCCCC2)nc1 [Example 27, N-[6-(azepan-1-yl)-3-pyridyl]-2-[cyclohexylamino]acetamide] | 2000 to 10000 nM
CN(CC(=O)Nc1ccc(N2CCCCCC2)nc1)C1CCCCC1 [Example 28] | 2000 to 10000 nM
O=C(CNC1CCCCCC1)Nc1ccc(N2CCCCCC2)nc1 [Example 29, N-[6-(azepan-1-yl)-3-pyridyl]-2-(cycloheptylamino)acetamide] | 500 to 2000 nM
O=C(CNc1ccccc1)Nc1ccc(N2CCCCCC2)nc1 [Example 30, 2-anilino-N-[6-(azepan-1-yl)-3-pyridyl]acetamide] | 500 to 2000 nM
O=C(CNCc1ccccc1)Nc1ccc(N2CCCCCC2)nc1 [Example 31, N-[6-(azepan-1-yl)-3-pyridyl]-2-(benzylamino)acetamide] | 2000 to 10000 nM
O=C(CN1CC2CCC(C2)C1)Nc1ccc(N2CCCCCC2)nc1 [Example 32, 2-(3-azabicyclo[3.2.1]octan-3-yl)-N-[6-(azepan-1-yl)-3-pyridyl]acetamide] | < 500 nM
O=C(CN1CCCCC1)Nc1ccc(N2CCCCCC2)cn1 [Example 34] | 2000 to 10000 nM
O=C(CN1CCCCC1)Nc1cnc(N2CCCCCC2)nc1 [Example 35, N-[2-(azepan-1-yl)pyrimidin-5-yl]-2-(1-piperidyl)acetamide] | 500 to 2000 nM
O=C(CN1CCCCC1)Nc1ccc(N2CCCCCC2)c(F)c1 [Example 36, N-[4-(azepan-1-yl)-3-fluoro-phenyl]-2-(1-piperidyl)acetamide] | < 500 nM
O=C(CN1CCCCC1)Nc1ccc(N2CCCCCC2)cc1F [Example 38, N-4-(azepan-1-yl)-2-fluoro-phenyl1-2-(1-piperidyl)acetamide] | 2000 to 10000 nM
